In ChEMBL document CHEMBL6134877, “Innovative Approaches in Psychedelics, AI, and Communication: A Multi-Domain Perspective” (ACS Med Chem Lett, 2025):

Tests used:
Format in all cases: ADME, organism-based
[1] = AUC (infinity) in brain of male C57BL6 mouse at 3 mg/kg, po
[2] = AUClast in plasma of male C57BL6 mouse at 3 mg/kg, po
[3] = Half life in plasma of male C57BL6 mouse at 3 mg/kg, po
[4] = Tmax in brain of male C57BL6 mouse at 3 mg/kg, po
[5] = AUClast in brain of male C57BL6 mouse at 3 mg/kg, po
[6] = Half life in brain of male C57BL6 mouse at 3 mg/kg, po
[7] = Cmax in brain of male C57BL6 mouse at 3 mg/kg, po
[8] = Tmax in plasma of male C57BL6 mouse at 3 mg/kg, po
[9] = Cmax in plasma of male C57BL6 mouse at 3 mg/kg, po
[10] = AUC (infinity) in plasma of male C57BL6 mouse at 3 mg/kg, po

SMILES	AUC(0-inf) [1]	AUC(0-t) [2]	half-life [3]	Tmax [4]	AUC(0-t) [5]	half-life [6]	Cmax [7]	Tmax [8]	Cmax [9]	AUC(0-inf) [10]
CCCOc1cc(CCN)c(OC)cc1Br	6680 ng·h/mL	284 ng·h/mL	1.44 h	1 h	6480 ng·h/mL	1.29 h	1850 ng/mL	0.5 h	130 ng/mL	291 ng·h/mL
CN(C)CCc1c[nH]c2cccc(O)c12 [PSILOCIN]	4420 ng·h/mL	1060 ng·h/mL	1.7 h	0.5 h	3600 ng·h/mL	4.47 h	1340 ng/mL		878 ng/mL	1140 ng·h/mL
